This note sets out measurements from patent US7112680B2, “Heterocyclic hydrazones for use as anti-cancer agents” (Austria Wirtschaftsservice Gesellschaft MIT Beschrankter …, priority 2000, dated 2006).

The term IC90 denotes the concentration needed for an effect of 90%.

Where two headings read alike, the source gives them in different places.

Assay [1] deals with MEXF 276L (melanoma). Description: Inhibition of tumor cell growth, SRB-assay, MEXF 276L. Format: cell-based, human. As to conditions: Table 2, 72 hours, read-out: IC50 MEXF276L. The protocol: The KB cell lines were grown in Dulbecco's modified Eagle's medium (4,5 g glucose/l). To the cultures of KB-C1 cells 1 μg of colchicine/ml, and to the hydroxyurea-resistant KB-HU cells 1 mM hydroxyurea was added every other week. […] 3,000 - 10,000 cells in 200 μl medium were seeded per well into 96-well plates. […] Approximately 10,000 cells per 100 μl were seeded in 96-well plates. […] The substances were dissolved in dimethylsulfoxide (DMSO). […] Subsequently, the samples were fixed, washed, and the absorption was determined by a microplate reader.

For assay [2], the system named is CCRF-CEM (acute lymphoblastic leukemia). Briefly: Inhibition of tumor cell growth, MTT-assay, CCRF-CEM. Particulars: Table 2, 72 hours. It is filed as cell-based, human. Background: Formazan colour is commonly taken as a measure of viable cells.
Assay [3] deals with HeLa (epitheloid cervix carcinoma). Briefly: Inhibition of tumor cell growth, SRB-assay, HeLa. Format: cell-based, human. On the technique in general: In SRB staining, fixed cells bind dye roughly in proportion to their protein.
Assay [4] deals with up to 12 different tumor cells in permeable hoses. Briefly: Hollow fibre assay. Format: in vivo. As to conditions: mice implanted with tumor cells in permeable hoses. On the procedure:
Substances Ib-11 and Ib-24 were also tested in the so-called hollow fibre assay for their anti-tumor activity. For this purpose, mice were implanted with up to 12 different tumor cells in permeable hoses and treated with the compounds according to the invention.

Assay [5] concerns Burkitt's lymphoma (CA 46, ATCC No. CRL 1648). Briefly: Inhibition of tumor cell growth, MTT-assay, Burkitt's lymphoma. Format: cell-based, human. The method, boiled down: (§1)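 Cells seeded at 3,000–10,000 (or ~10,000) per well in 96-well plates; compounds dissolved in DMSO. After treatment, samples fixed, washed and absorbance read on a microplate reader (SRB or MTT read-out according to the assay).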

The subject of assay [6] is HT-29 (colon adenocarcinoma). Description: Inhibition of tumor cell growth, SRB-assay, HT-29. Format: cell-based, human. The method, boiled down:
as §1

For assay [7], the system named is KB-HU hydroxyurea-resistant cells. Briefly: Inhibition of tumor cell growth, SRB-assay, KB-HU. Format: cell-based, human. Particulars: Table 4, 72 hours, read-out: In vitro-activity against human tumor cell lines, KB-HU. On the procedure: (§2) In order to obtain information about the growth-inhibiting action on tumor cells, the inhibition of the growth of the following human tumor cells was determined: Burkitt's lymphoma (CA 46, ATCC No. CRL 1648), CCRF-CEM (acute lymphoblastic leukemia, ATCC No. CCL 119), K562 (chronic myelogenous leukemia, ATTC No. CCL 243), HeLa (epitheloid cervix carcinoma, ATCC No. CCL 2), MEXF 276L (melanoma), HT-29 (colon adenocarcinoma, ATCC No. HTB 38), KB-3-1 (human oral epidermoid carcinoma, CTCC No. CCL 17), KB-HU hydroxyurea-resistant, multidrug-resistant KB-C1 cells (Akiyama et al, Cell. Mol Genet., 11:117–126, 1985). Burkitt's, CCRF-CEM, HeLa and MEXF 276L cells were grown in RPMI 1640, HT-29 cells in McCoy's 5A medium. The KB cell lines were grown in Dulbecco's modified Eagle's medium (4,5 g glucose/l). To the cultures of KB-C1 cells 1 μg of colchicine/ml, and to the hydroxyurea-resistant KB-HU cells 1 mM hydroxyurea was added every other week. The media were supplemented with 10% fetal calf serum (except Burkitt's lymphoma cells with 15%), 2 mM glutamine, 50 units/ml penicillin and 50 μg/ml streptomycin. Inhibition of growth of HeLa, HT-29, KB and MEXF 276L cells was detected by the SRB-assay (Skehan et al, J. Natl Cancer Inst., 82:1107–1112, 1990). 3,000 - 10,000 cells in 200 μl medium were seeded per well into 96-well plates. Dose-response curves for CCRF-CEM and Burkitt's lymphoma cells were effected by an MTT-assay (Mosman, J. Immunol Methods, 65:55–63, 1983) from Boehringer Mannheim, Mannheim, Germany. Approximately 10,000 cells per 100 μl were seeded in 96-well plates. After an initial incubation of four hours, various substance concentrations were added, and the cells were incubated at 37° C. in a water-saturated atmosphere of 95% air and 5% CO2 for 72 hours. The substances were dissolved in dimethylsulfoxide (DMSO). The concentration of DMSO was 0.5%, and this was not toxic to the cells. Subsequently, the samples were fixed, washed, and the absorption was determined by a microplate reader.

Assay [8] concerns multidrug-resistant KB-C1 cells. Briefly: Inhibition of tumor cell growth, SRB-assay, KB-C1. Particulars: read-out: In vitro-activity against human tumor cell lines, KB-C1. Format: cell-based, human. The protocol: as §2
The subject of assay [9] is KB-3-1 (human oral epidermoid carcinoma). Briefly: Inhibition of tumor cell growth, SRB-assay, KB-3-1. It is filed as cell-based. As to conditions: read-out: In vitro-activity against human tumor cell lines, KB-3-1. On the procedure:
as §2

The test system of assay [10] is Burkitt's lymphoma cells. Briefly: Apoptosis determination with propium iodide. It is filed as cell-based, human. As to conditions: for induction of apoptosis (in words): tumor cells; for apoptotic cells: twice the IC50 concentrations, 48 hours, non-treated cells 1.7%. On the procedure:
In non-treated Burkitt's lymphoma cells, an average of 1.7% are apoptotic. […] The determination of the apoptosis was performed with propium iodide (Nicoletti et al., Rapid and Simple Method for Measuring Thymocyte Apoptosis by Propium Iodine Staining and Flow Cytometry, J. Immunol. Methods, 139, 271–279, 1991).

In assay [11] the test system is human tumor grafts (cell lines of FIG. 1). Briefly: Colony forming assay (two-layer soft agar). Format: cell-based. As to conditions: for IC50 / IC90 / Mean IC70: mean values of all cell lines tested in FIG. 1, continuous exposure 3 to 6 days. The gist of the method:
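Cells from human tumors grown as nude-mouse xenografts, enzyme-dissociated, plated in two-layer soft agar; compounds added one day later, continuous exposure, 6 concentrations in triplicate. Incubated 3-6 days at 37° C, 7% CO2; live colonies stained with iodonitrotetrazolium and counted by image analysis versus solvent controls.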

Assay [12] deals with K562 (chronic myelogenous leukemia). Briefly: Inhibition of tumor cell growth, K562. Format: cell-based, human. As to conditions: 72 hours. On the procedure:
as §2

Setting [13] is: Table 2, 72 hours, read-out: IC50 HeLa (converted).
[14] abbreviates: Table 2, 72 hours, read-out: IC50 Burkitts.
Setting [15] is: Table 2, 72 hours, read-out: IC50 HT-29 (converted).
Where [16] appears, read: Table 1, 72 hours, read-out: IC50 HeLa (converted).
The mark [17] stands for this setting: Table 1, 72 hours, read-out: IC50 Burkitts.
Setting [18] is: Table 1, 72 hours, read-out: IC50 HT-29 (converted).

On to `CC(=NNc1nc2ccccc2[nH]1)c1cnccn1` [Ib-11], for which the IC50 in assay [1] was 2130 nM; in assay [2], 900 nM; in assay [3] (setting [13]), 1710 nM; in [5] (setting [14]) it was 1320 nM; in assay [6] (setting [15]), 710 nM. Also, the “anti-tumor activity in hollow fibre assay” value in assay [4] is “exhibit anti-tumor activity”.

For the compound `CC(=NNc1nc2ccccc2n1C)c1cc(N(C)C)ccn1` [Id-12], the IC50 in assay [7] came out at 50 nM; in assay [8] (Table 4, 72 hours), 810 nM; in assay [9] (Table 4, 72 hours), 2280 nM; in [3] (Table 4, 72 hours, read-out: In vitro-activity against human tumor cell lines, HeLa), 3740 nM; in assay [5] (Table 4, 72 hours, read-out: In vitro-activity against human tumor cell lines, Burkitts), 2210 nM; in assay [6] (Table 4, 72 hours, read-out: In vitro-activity against human tumor cell lines, HT-29), 5070 nM. Also, the “induction of apoptosis (in words)” value in [10] is listed as “capable of inducing apoptosis”. This compound gave an apoptotic cells in assay [10] of 60%.

Turning to `NC(=O)NO` [hydroxyurea, reference compound], in assay [11] (colony forming assay, Table 5 / FIG. 1), the “in vitro anti-tumor activity against human cancer cells (in words)” value is on record as “far lower than that of the compounds according to the invention”. This compound displayed an apoptotic cells in assay [10] of 7.3%.

`Cn1c(NN=C(c2ccccn2)C(C)(C)C)nc2ccccc21` [Ia-20]: the IC50 in [11] is 15 nM; in [3] (setting [16]) it was 530 nM; in [12] (Table 1), 1680 nM; in [5] (setting [17]) it was 8430 nM; in assay [6] (setting [18]) it was over 100000 nM. In assay [11], this compound displayed an IC90 of 231 nM. The “Mean IC70” value in [11] was 0.064 µM.

With `C=CCn1c(NN=C(C)c2ccccn2)nc2ccccc21` [Ic-5], in assay [11] (colony forming assay, IC70 pattern, FIG. 1), the tumor type selectivity entry was “selectivity for colon, breast, ovarian, and uterus tumors”. Besides, the IC50 in assay [11] was 214 nM; in [3] (Table 3, 72 hours, read-out: IC50 HeLa (converted)) it was 10 nM; in assay [12] (Table 3), 180 nM; in [5] (Table 3, 72 hours, read-out: IC50 Burkitts), 980 nM; in assay [6] (Table 3, 72 hours, read-out: IC50 HT-29 (converted)), 12800 nM. Besides, the IC90 in assay [11] was determined as 3330 nM. The “Mean IC70” value in [11] is 0,607 μM.

As for `CC(=NNc1nc2ccccc2n1C)c1cccc(-c2ccccc2)n1` [Id-17, 1-(6-Phenyl-2-pyridyl)-1-ethanone-1-(1-methyl-1H-benzo[d]imidazol-2-yl)-hydrazone], the IC50 in assay [7] (Homo sapiens) came to 9940 nM; in assay [8] (Homo sapiens, KBC-1, Table 4, 72 hours) it was 3080 nM; in assay [9] (Homo sapiens, KB 3-1, Table 4, 72 hours), 3850 nM; in assay [3] (Homo sapiens, HeLa, Table 4, 72 hours, read-out: In vitro-activity against human tumor cell lines, HeLa), 2350 nM; in [5] (Homo sapiens, CA46, Table 4, 72 hours, read-out: In vitro-activity against human tumor cell lines, Burkitts), 1450 nM; in assay [6] (Homo sapiens, HT-29, Table 4, 72 hours, read-out: In vitro-activity against human tumor cell lines, HT-29), 3360 nM. For the same compound, in assay [10], the “induction of apoptosis (in words)” value is recorded as “capable of inducing apoptosis”. Moreover, the apoptotic cells in assay [10] is 85%.

In the case of `CC(=NNc1nc2ccccc2o1)c1cc2ccccc2cn1` [Ib-24], the IC50 in [1] is 650 nM; in assay [2], 130 nM; in assay [3] (setting [13]), 63 nM; in assay [5] (setting [14]), 25 nM; in assay [6] (setting [15]), 230 nM. The “anti-tumor activity in hollow fibre assay” value in [4] is “exhibit anti-tumor activity”.

Consider `CCCC(=NNc1nc2ccccc2n1C)c1ccccn1` [Ia-12], for which the IC50 in [11] was 246 nM; in assay [3] (setting [16]), 17 nM; in assay [12] (Table 1) it was 80 nM; in assay [5] (setting [17]), 1780 nM; in assay [6] (setting [18]), 16300 nM. This compound displayed an IC90 in assay [11] of 3740 nM. Also, the “Mean IC70” value in [11] is 0.603 µM.

For `CC(=NNc1nc2ccccc2n1-c1ccccc1)c1ccccn1` [Ic-7, 1-(2-Pyridyl)-1-ethanone-1-(1-phenyl-1H-benzo[d]imidazol-2-yl)-hydrazone], the IC50 in [11] (Homo sapiens) was 760 nM; in [3] (Homo sapiens, HeLa, Table 3, 72 hours, read-out: IC50 HeLa (converted)) it was 50 nM; in assay [12] (Homo sapiens, K562, Table 3), 700 nM; in assay [5] (Homo sapiens, CA46, Table 3, 72 hours, read-out: IC50 Burkitts), 3480 nM; in assay [6] (Homo sapiens, HT-29, Table 3, 72 hours, read-out: IC50 HT-29 (converted)), 100 nM. The compound also had an IC90 in [11] (Homo sapiens) of 6300 nM. Moreover, the “Mean IC70” value in assay [11] was determined as 1.741 µM.
